In publication PMC11855212 (2025):

Assays:
[1] = tested on: c-jun G4 (DNA, G4) AAGGGGGGAGGGGGAGGGGGTT; assay: SPR; details: 100 mM K+; 50 mM Tris-HCl, pH 7.4, 25 °C
[2] = tested on: RB IM (RB promoter i-motif) (DNA, i motif) GCCGCCCAAAACCCCCCG; assay: SPR; details: 100 mM K+; 20 mM MES, pH 5.5, 25 °C
[3] = tested on: RB IM (RB promoter i-motif) (DNA, i motif) GCCGCCCAAAACCCCCCG; assay: TO displacement fluorescence; details: 100 mM K+; BPES buffer, pH 5.5, 25 °C; 1 μM DNA; thiazole orange (TO) displaced
[4] = tested on: RET G4 (DNA, G4) GGGGCGGGGCGGGGGGGGG; assay: SPR; details: 100 mM K+; 50 mM Tris-HCl, pH 7.4, 25 °C
[5] = tested on: RB promoter G-quadruplex, 5'-FAM (DNA, G4) CGGGGGGTTTTGGGCGGC; assay: MST; details: 100 mM K+; 50 mM Tris-HCl, pH 7.4, 25 °C
[6] = tested on: RB G4 (RB promoter G-quadruplex) (DNA, G4) CGGGGGGTTTTGGGCGGC; assay: TO displacement fluorescence; details: 100 mM K+; 50 mM Tris-HCl, pH 7.4, 25 °C; 1 μM DNA; thiazole orange (TO) displaced
[7] = tested on: kras G4 (DNA, G4) AGGGCGGTGTGGGAAGAGGGAAGAGGGGGAGG; assay: SPR; details: 100 mM K+; 50 mM Tris-HCl, pH 7.4, 25 °C
[8] = tested on: c-jun IM (DNA, i motif) TAACCCCCTCCCCCTCCCCCCTTTAAT; assay: SPR; details: 100 mM K+; 20 mM MES, pH 5.5, 25 °C
[9] = tested on: RB G4 (RB promoter G-quadruplex) (DNA, G4) CGGGGGGTTTTGGGCGGC; assay: CD melting; details: 100 mM K+; 50 mM Tris-HCl, pH 7.4; 2 μM DNA; compound concentration not in material
[10] = tested on: ACC2 IM (DNA, i motif) TGACCCGCCCCCGCCCCGCCCCTGT; assay: SPR; details: 100 mM K+; 20 mM MES, pH 5.5, 25 °C
[11] = tested on: RB promoter i-motif, 5'-FAM (DNA, i motif) GCCGCCCAAAACCCCCCG; assay: MST; details: 100 mM K+; 20 mM MES, pH 5.5, 25 °C
[12] = tested on: ACC2 G4 (DNA, G4) GGGGCGGGGCGGGGGCGGG; assay: SPR; details: 100 mM K+; 50 mM Tris-HCl, pH 7.4, 25 °C
[13] = tested on: RB IM (RB promoter i-motif) (DNA, i motif) GCCGCCCAAAACCCCCCG; assay: CD melting; details: 100 mM K+; BPES buffer (pH 5.5 per i-motif experiments); 2 μM DNA; compound concentration not in material
[14] = tested on: hairpin (DNA, hairpin) CGCGCGCGTTTTCGCGCGCG; assay: SPR; details: 25 °C; highest concentration not stated
[15] = tested on: RB IM, 5'-biotin (SPR) (DNA, i motif) GCCGCCCAAAACCCCCCG; assay: SPR; details: 100 mM K+, 20 mM MES, pH 5.5, 25 °C
[16] = tested on: hairpin (DNA, hairpin) CGCGCGCGTTTTCGCGCGCG; assay: SPR; details: buffer for hairpin not stated

SMILES	KD [1]	KD [2]	DC50 [3]	KD [4]	KD [5]	DC50 [6]	KD [7]	KD [8]	ΔTm [9]	KD [10]	KD [11]	KD [12]	ΔTm [13]	KD [14]	KD ([15]; unit not printed in Table S2, μM in text)	KD ([15]; Table S2 prints 9.24)	KD [16]
CN(CCCNc1c2ccccc2nc2ccccc12)CCCNc1c2ccccc2nc2ccccc12	43.9 µM	2.44 µM	3.4 µM	30.9 µM	2.50 ± 0.65 µM	2.7 µM	32.5 µM	27.0 µM	−6.4 °C	41.7 µM	0.43 ± 0.24 µM	53.1 µM	−10.7 °C	> 50 µM	–	–	–
C[n+]1c(/C=C/c2c3ccccc3cc3ccccc23)ccc2ccccc21	–	36.7 µM	–	–	–	–	–	–	–	–	–	–	–	–	36.7 µM	–	–
Cc1ccc2nc3ccccc3c(NCCNCCNc3c4ccccc4nc4ccc(C)cc34)c2c1	–	–	–	–	0.50 ± 0.27 µM	–	–	–	−9.9 °C	–	18.06 ± 5.28 µM	–	–	–	–	13.6 µM	> 50 µM
